The values below come from article PMC8037310, “Thrombin-Derived Peptides Potentiate the Activity of Gram-Positive-Specific Antibiotics against Gram-Negative Bacteria” (Molecules, 2021).

SMILES strings stand for the structures. Values joined by “and” are separate entries in the source; they are usually repeats but may differ in a detail not shown here. Identical values can stand only once. Like-named read-outs stand apart in the source and are kept apart here. Peptide text beside a SMILES is read from it. Some results are limits rather than exact numbers.

Data set [1] deals with defibrinated sheep blood (red blood cells). The data set is described as follows: Hemolysis assay. The settings on record: 200 µg/mL compound, 20 h incubation at 37 °C with defibrinated sheep blood, PBS 0.002% Tween20, absorbance 415 nm, relative to 0.1% Triton X-100; n=3 technical replicates. The data set is classed as cell-based. The protocol:
Defibrinated sheep blood (Thermo Fisher Scientific) and a phosphate-buffered saline (PBS) buffer containing 0.002% Tween20 were used in this assay. The red blood cells were washed with buffer followed by centrifugation (400 g for 15 min at 4 °C). The red blood cells were then normalized to obtain a positive control read-out around 2.5 at 415 nm to stay in the linear range with the maximum sensitivity. A serial dilution of the compounds (200–1.56 µg/mL, 75 µL) was prepared in a 96-well plate. Each plate contained a positive control (0.1% Triton X-100 final concentration, 75 µL) and the negative control (buffer, 75 µL). After addition of normalized blood cells (75 µL), the plates were incubated for 20 h at 37 °C at 500 rpm. The plates were centrifuged (800× g for 5 min at room temperature). For the next step flat-bottom polystyrene plates were prepared with 100 µL buffer in each well. Aliquots of 25 µL supernatant from the centrifuged plates were then transferred to their respective wells in the flat-bottom plate. Absorbance values where measured at 415 nm and corrected for background (negative control) and transformed to a percentage hemolysis relative to the positive control.

For data set [2], the system named is E. coli BW25113. The data set is classed as cell-based, Escherichia coli. The conditions noted are these: for MSCrif: rifampicin concentration in the combination giving the lowest FICi; for MSCrif / MSCpep: E. coli BW25113; for MICpep: synergist alone, E. coli BW25113, from checkerboard with rifampicin; for MSCpep: synergist concentration in the combination with rifampicin giving the lowest FICi. The protocol: (§1) All peptides were screened for antimicrobial activity against E. coli BW25113, E. coli ATCC25922, and E. coli W3110. A select group of the peptides was further tested against E. coli mcr-1, E. coli EQASmcr-1 (EQAS 2016 412016126), E. coli EQASmcr-2 (EQAS 2016 KP37), E. coli EQASmcr-3 (EQAS 2017 2013-SQ352), K. pneumoniae ATCC13883, P. aeruginosa ATCC27853, and A. baumannii ATCC17978. The antimicrobial assay was performed according to CLSI guidelines. Bacteria were plated out directly from their glycerol stocks on blood agar plates, incubated overnight at 37 °C, and then kept in the fridge. The blood agar plates were only used for 2 weeks and then replaced.
(§2) One colony from a blood agar plates was inoculated in Lysogeny Broth (LB) at 37 °C until a 0.5 optical density at 600 nm (OD600) was reached (compared to the sterility control of LB). The bacterial suspension was diluted in fresh LB to 2.0 × 10^6 CFU/mL. The serial dilutions were prepared in polypropylene microtiter plates: a stock of the test compounds was prepared with a 2x final concentration in LB. Moreover, 100 µL of the stock was added to the wells of the top row of which 50 µL was used for the serial dilution. The bottom row of each plate was used as the positive (50 µL of LB) and negative controls (100 µL of LB) (6 wells each). Furthermore, 50 µL of the 2.0 × 10^6 CFU/mL bacterial stock was added to each well except for the negative controls, adding up to a total volume of 100 µL per well. The plates were sealed with a breathable seal and incubated for 20 h at 37 °C and 600 rpm.
(§3) Two 96-well plates were required per compound. A serial dilution of the compound was performed on two plates from row A–G using with LB as medium. Row H was filled with 25 µL medium. On a separate plate a negative control (8 wells, 100 μL medium) was prepared. For all concentrations of antibiotic a specific stock was prepared. 25 µL medium was added to the 0 µg/mL antibiotic columns (plate I, column 1–3). Of each antibiotic stock 25 µL was added to three columns to obtain triplicates for every condition. Both plates contained 50 µL in each well to which 50 µL bacterial stock was added (see the protocol of the MIC assays) and the plates were sealed. After incubation for 20 h at 37 °C while shaking, the breathable seals were removed and the density of the bacterial suspensions measured at 600 nm (OD600) using a Tecan Spark plate reader. The OD600 values were transformed to a 2D gradient with the negative control as minimum and the positive control (wells G1, G2, and G3) as maximum in excel. The FICi was calculated using Equation (1) with a FICi ≤ 0.5 indicating synergy. FICi = (MSCa/MICa) + (MSCb/MICb),(1)
(§4) Calculation of the FICi: MSCa = concentration of the […] in combination with the antibiotic that results in the lowest FICi. MICa = MIC of the antibiotic without synergist (row G). MSCb = concentration of the synergist in combination with the antibiotic that results in the lowest FICi. MICb = MIC of the synergist itself (Column 1–3, plate I).

In data set [3] the test system is E. coli BW25113. The data set is described as follows: Checkerboard assay with erythromycin. The data set is classed as cell-based, Escherichia coli. The settings on record: for MSCery: erythromycin concentration in the combination with the synergist giving the lowest FICi, E. coli BW25113; for MIC of the peptide (MICpep): synergist alone, from checkerboard with erythromycin; for MIC of the peptide (MICpep) / MSCpeptide, minimum synergistic concentration: 20 h 37 °C; for MSCpeptide, minimum synergistic concentration: synergist concentration in the combination with erythromycin giving the lowest FICi, OD600; for FICi: with erythromycin vs E. coli BW25113, synergy defined as FICi ≤ 0.5. As to the method:
as §1, §2, §3, §4

Data set [4] relates to E. coli BW25113. The data set is described as follows: microbe, parasite or virus in culture. It is filed as cell-based, Escherichia coli. The conditions noted are these: antibiotic without synergist, E. coli BW25113. As to the method: as §1, §2, §3, §4

`CC[C@H](C)[C@H](NC(=O)[C@@H](NC(=O)[C@H](CCCCN)NC(=O)[C@H](CCC(N)=O)NC(=O)[C@@H](NC(=O)[C@H](Cc1c[nH]c2ccccc12)NC(=O)[C@H](CCCCN)NC(=O)[C@H](CCCCN)NC(=O)[C@H](C)NC(=O)[C@H](CCCNC(=N)N)NC(=O)[C@H](Cc1ccccc1)NC(=O)[C@@H](N)C(C)C)[C@@H](C)CC)C(C)C)C(N)=O` [compound 11] (H-VFRAKKWIQKVI-NH2): the Hemolysis in data set [1] was 1.1% and 1%. Besides, in the data set with E. coli BW25113 [2], the MSCrif is 0.25 µg/mL, the MICpep is 25 µg/mL and the MSCpep amounted to 1.563 µg/mL. Also, the MSCery in the data set on E. coli BW25113 [3] worked out at 12.5 µg/mL. Also, in the data set with E. coli BW25113 [3] (E. coli BW25113, LB), the “MIC of the peptide (MICpep)” value turned out to be 200 µg/mL and the “MSCpeptide, minimum synergistic concentration” value was 25 µg/mL.
With `CC[C@H](C)[C@H](NC(=O)[C@@H](NC(=O)[C@H](CCCCN)NC(=O)[C@H](CCC(N)=O)NC(=O)[C@@H](NC(=O)[C@H](Cc1c[nH]c2ccccc12)NC(=O)[C@H](CCCCN)NC(=O)[C@H](C)NC(=O)[C@H](CC(C)C)NC(=O)[C@H](CCCNC(=N)N)NC(=O)[C@H](Cc1ccccc1)NC(=O)[C@@H](N)C(C)C)[C@@H](C)CC)C(C)C)C(N)=O` [compound 12] (H-VFRLAKWIQKVI-NH2), the Hemolysis in data set [1] is 30.2% and 30%. Further, in the data set with E. coli BW25113 [2], the MICpep was found to be 25 µg/mL and the MSCpep came to 12.5 µg/mL. For the same molecule, the FICi in the data set with E. coli BW25113 [2] (with rifampicin vs E. coli BW25113, synergy defined as FICi ≤ 0.5) is reported as over 0.5. Besides, in the data set on E. coli BW25113 [3], the MSCery was 1.563 µg/mL and the FICi was over 0.5. Also, in the data set with E. coli BW25113 [3] (E. coli BW25113, LB), the “MIC of the peptide (MICpep)” value is 25 µg/mL and the “MSCpeptide, minimum synergistic concentration” value was 12.5 µg/mL.
`CC[C@H](C)[C@H](NC(=O)[C@@H](NC(=O)[C@H](CCCCN)NC(=O)[C@H](CCC(N)=O)NC(=O)[C@@H](NC(=O)[C@H](Cc1c[nH]c2ccccc12)NC(=O)[C@H](C)NC(=O)[C@H](CCCCN)NC(=O)[C@H](CC(C)C)NC(=O)[C@H](CCCNC(=N)N)NC(=O)[C@H](Cc1ccccc1)NC(=O)[C@@H](N)C(C)C)[C@@H](C)CC)C(C)C)C(N)=O` [compound 13] (H-VFRLKAWIQKVI-NH2) came in with a Hemolysis in data set [1] of 19.0%. Further, in the data set on E. coli BW25113 [2] (BW25113, 20 h), the FICi worked out at 0.5000. Besides, in the data set on E. coli BW25113 [2], the MSCrif was 2 µg/mL, the MICpep was found to be 25 µg/mL and the MSCpep is 6.25 µg/mL. Moreover, in the data set on E. coli BW25113 [3], the MSCery was 3.125 µg/mL and the FICi is over 0.5. Further, in the data set on E. coli BW25113 [3] (E. coli BW25113, LB), the “MIC of the peptide (MICpep)” value came out at 25 µg/mL and the “MSCpeptide, minimum synergistic concentration” value was 12.5 µg/mL.
Regarding `CC[C@H](C)[C@H](NC(=O)[C@@H](NC(=O)[C@H](CCCCN)NC(=O)[C@H](CCC(N)=O)NC(=O)[C@H](C)NC(=O)[C@H](Cc1c[nH]c2ccccc12)NC(=O)[C@H](CCCCN)NC(=O)[C@H](CCCCN)NC(=O)[C@H](CC(C)C)NC(=O)[C@H](CCCNC(=N)N)NC(=O)[C@H](Cc1ccccc1)NC(=O)[C@@H](N)C(C)C)C(C)C)C(N)=O` [compound 15] (H-VFRLKKWAQKVI-NH2), the Hemolysis in data set [1] is 0.9% and 1%. Also, the FICi in the data set with E. coli BW25113 [2] (BW25113, 20 h) is reported as 0.0938. For the same molecule, in the data set with E. coli BW25113 [2], the MSCrif came to 0.25 µg/mL, the MICpep turned out to be 100 µg/mL and the MSCpep came to 6.25 µg/mL. In the data set on E. coli BW25113 [3], the MSCery was 12.5 µg/mL. Besides, in the data set with E. coli BW25113 [3] (E. coli BW25113, LB), the “MIC of the peptide (MICpep)” value is recorded as 100 µg/mL and the “MSCpeptide, minimum synergistic concentration” value is recorded as 12.5 µg/mL.
As to `CC[C@H]1OC(=O)[C@H](C)[C@@H](O[C@H]2C[C@@](C)(OC)[C@@H](O)[C@H](C)O2)[C@H](C)[C@@H](O[C@@H]2O[C@H](C)C[C@H](N(C)C)[C@H]2O)[C@](C)(O)C[C@@H](C)C(=O)[C@H](C)[C@@H](O)[C@]1(C)O` [erythromycin, reference compound], the MIC in the data set with E. coli BW25113 [3] (Escherichia coli, antibiotic without synergist, E. coli BW25113, LB, read-out: MIC of erythromycin (MICery)) was in the range of 100 to 200 µg/mL. Besides, the “MIC of erythromycin (MICery)” value in the data set with E. coli BW25113 [3] (antibiotic without synergist, E. coli BW25113, LB) was > 100 µg/mL and 200 µg/mL.
Consider `CO[C@@H]1[C@@H](OC(N)=O)[C@@H](O)[C@H](Oc2ccc3c(O)c(NC(=O)c4ccc(O)c(CC=C(C)C)c4)c(=O)oc3c2C)OC1(C)C` [novobiocin, reference compound], for which the MIC in the data set on E. coli BW25113 [4] (Escherichia coli, read-out: MIC of novobiocin (MICnovo)) is over 200 µg/mL. In the data set with E. coli BW25113 [4], the “MIC of novobiocin (MICnovo)” value is over 200 µg/mL.
Consider `CC[C@H](C)[C@H](NC(=O)[C@H](Cc1c[nH]c2ccccc12)NC(=O)[C@H](CCCCN)NC(=O)[C@H](CCCCN)NC(=O)[C@H](CC(C)C)NC(=O)[C@H](CCCNC(=N)N)NC(=O)[C@H](Cc1ccccc1)NC(=O)[C@@H](NC(=O)[C@@H](N)Cc1c[nH]cn1)C(C)C)C(=O)N[C@@H](CCC(N)=O)C(=O)N[C@@H](CCCCN)C(=O)N[C@H](C(=O)N[C@H](C(=O)N[C@@H](CC(=O)O)C(=O)N[C@@H](CCC(N)=O)C(=O)N[C@@H](Cc1ccccc1)C(=O)NCC(=O)N[C@@H](CCC(=O)O)C(=O)O)[C@@H](C)CC)C(C)C` [peptide 2] (H-HVFRLKKWIQKVIDQFGE-OH), for which, in the data set with E. coli BW25113 [2], the MSCrif was determined as 0.5 µg/mL, the MICpep was 200 µg/mL and the MSCpep is 50 µg/mL. Further, in the data set on E. coli BW25113 [3], the MSCery was determined as 25 µg/mL and the FICi is recorded as 0.3750. Besides, in the data set with E. coli BW25113 [3] (E. coli BW25113, LB), the “MIC of the peptide (MICpep)” value worked out at 200 µg/mL and the “MSCpeptide, minimum synergistic concentration” value is 50 µg/mL.
For `CC[C@H](C)[C@H](NC(=O)[C@H](Cc1c[nH]c2ccccc12)NC(=O)[C@H](CCCCN)NC(=O)[C@H](CCCCN)NC(=O)[C@H](CC(C)C)NC(=O)[C@H](CCCNC(=N)N)NC(=O)[C@H](Cc1ccccc1)NC(=O)[C@@H](NC(=O)[C@@H](N)Cc1cnc[nH]1)C(C)C)C(=O)N[C@@H](CCC(N)=O)C(=O)N[C@@H](CCCCN)C(=O)N[C@H](C(=O)N[C@H](C(=O)N[C@@H](CC(=O)O)C(=O)N[C@@H](CCC(N)=O)C(=O)N[C@@H](Cc1ccccc1)C(=O)NCC(=O)N[C@@H](CCC(=O)O)C(=O)O)[C@@H](C)CC)C(C)C` [peptide 2] (H-HVFRLKKWIQKVIDQFGE-OH), the Hemolysis in data set [1] was 8.7% and 9%.
